Experiments:
[1] = Metabolic stability, liver microsomes; assay type: in vitro ADME; conditions: Dog, 37 °C, read-out: Liver microsomes t1/2 (converted)
FLT3 (ITD) [2] = target: FLT3 (ITD) (Homo sapiens, UniProt P36888, ITD); experiment: KINOMEscan Kd (DiscoverX); assay type: binding
Method: (§1) Dissociation constants (Kd) and inhibition levels of FLT3 mutants were measured at DiscoverX using the KINOMEscan^TM Profiling Service (KdELECT).

FLT3 (ITD) [3] = target: FLT3 (ITD) (Homo sapiens, UniProt P36888); experiment: KINOMEscan Kd (DiscoverX); assay type: binding; conditions: comparison of Kd
FLT3 (ITD) (Homo sapiens, UniProt P36888), sequence (P36888 564-993, change not shown): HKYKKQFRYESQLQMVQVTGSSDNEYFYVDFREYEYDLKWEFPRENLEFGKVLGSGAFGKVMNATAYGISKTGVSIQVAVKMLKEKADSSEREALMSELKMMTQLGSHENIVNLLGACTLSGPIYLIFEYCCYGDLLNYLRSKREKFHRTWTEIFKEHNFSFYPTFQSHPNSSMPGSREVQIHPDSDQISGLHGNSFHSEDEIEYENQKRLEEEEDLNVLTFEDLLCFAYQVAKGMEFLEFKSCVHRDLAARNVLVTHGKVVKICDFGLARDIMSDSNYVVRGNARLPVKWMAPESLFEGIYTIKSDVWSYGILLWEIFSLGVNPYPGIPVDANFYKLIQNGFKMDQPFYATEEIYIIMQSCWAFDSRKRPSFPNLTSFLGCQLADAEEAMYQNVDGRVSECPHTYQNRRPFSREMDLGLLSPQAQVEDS
Method: as §1

CYP2C9 = target: T1, CYP2C9 (Homo sapiens, UniProt P11712); experiment: CYP isoforms inhibition; assay type: in vitro ADME; conditions: 5-dose, 3-fold dilution starting at 30 µM
T1 construct: Cambridge Bioscience Limited (ran the assay)
T1 sequence (P11712 whole entry, canonical isoform): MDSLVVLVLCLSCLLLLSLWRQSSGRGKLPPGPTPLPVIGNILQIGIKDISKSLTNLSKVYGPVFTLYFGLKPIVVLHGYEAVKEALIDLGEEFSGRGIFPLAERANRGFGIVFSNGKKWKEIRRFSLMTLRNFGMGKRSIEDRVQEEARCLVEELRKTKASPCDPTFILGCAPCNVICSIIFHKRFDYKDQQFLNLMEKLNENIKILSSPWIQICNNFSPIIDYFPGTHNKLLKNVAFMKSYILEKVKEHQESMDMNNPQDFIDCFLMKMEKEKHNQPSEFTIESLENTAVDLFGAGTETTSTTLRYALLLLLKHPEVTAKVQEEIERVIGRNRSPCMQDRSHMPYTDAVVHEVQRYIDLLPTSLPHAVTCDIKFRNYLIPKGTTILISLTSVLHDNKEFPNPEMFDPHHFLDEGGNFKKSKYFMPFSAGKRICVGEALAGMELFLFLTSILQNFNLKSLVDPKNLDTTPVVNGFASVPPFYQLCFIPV
Method: or absence of enzyme cofactors. The assay was performed microsomes. (Supplementary Table 7).
with the respective reference samples (i.e. without measured at Cambridge Bioscience Limited (except
cofactors). After incubation, drug transformation by liver CYP1A2 inhibition which was measured in-house). […]
The analysis of two standard compounds (i.e. positive a very weak potential for CYP inhibition with IC50
and negative controls) was included. […]

MV-4-11 [4] = experiment: MTS viability assay, 72 h; conditions: Homo sapiens, MV4-11, 72 h
Method: On the same day, 50 μL of medium containing tested inhibitor was added to the wells. Each compound was tested at 8 concentrations, in triplicates. As a negative control, the medium containing 0.1% DMSO was used. […] Staurosporine was used at 10 μM as a positive control. One the day of drug addition, basal signal from untreated cells was measured from in triplicate to determine time zero (T0). […] GI50 and LC50 values were extrapolated from a variable (four-parameter) dose-response curve fitted in GraphPad Prism.

MOLM-16 (FLT3-WT) tumor = experiment: MOLM-16 subcutaneous xenograft, single agent; assay type: in vivo, SCID/beige mice
Text: All animals were handled in strict accordance with good animal practice as defined by the relevant national and local animal welfare bodies. SCID and SCID/beige C.B-17 mice were provided by Harlan Laboratories or Charles River Laboratories, and were maintained in pathogen free conditions. For the xenograft experiments, age-matched (9-11 weeks old) females were used. 5×10^6 of MV-4-11 or MOLM-16 cells were suspended in a mixture (1:1, v:v) of PBS with Matrigel (BD Biosciences,) and injected subcutaneously (sc), in a total volume of 100 μL, above the groin on the right hind limb. For MOLM-13 and KG-1 cells, a mixture (3:1, v:v) of PBS and Matrigel HC (BD Bioscience,) was used to inject 5 × 10^6 of cell per mouse subcutaneously (sc), in a total volume of 100 μL. When tumors reached 100-130 mm^3, mice were randomized into uniform groups (6-9 mice per group) and subsequently administered the compound. […] At the end of the experiment, mice were anesthetized with isofluran and blood samples for total cell counts and biochemistry were obtained by retro-orbital bleeding. […] 5×10^6 cells suspended in a mixture (3:1, v:v) of PBS and Matrigel were injected as described above. When the tumor volume reached ~120 mm^3, mice were randomized into uniform groups (5 mice per group) and the compound then administered. […] Tumor volume was monitored every second day and calculated using the formula: TV = (a^2×b)/2, where “a” is the short axis in millimeters, and “b” is the long axis in millimeters. Body weight was assessed every day.

MOLM-13 xenografts = experiment: MOLM-13 subcutaneous xenograft; assay type: in vivo; conditions: MOLM-13, SCID mice; AC220 10 mg/kg QD, other doses not given
Text: All animals were handled in strict accordance with good animal practice as defined by the relevant national and local animal welfare bodies. SCID and SCID/beige C.B-17 mice were provided by Harlan Laboratories or Charles River Laboratories, and were maintained in pathogen free conditions. For the xenograft experiments, age-matched (9-11 weeks old) females were used. 5×10^6 of MV-4-11 or MOLM-16 cells were suspended in a mixture (1:1, v:v) of PBS with Matrigel (BD Biosciences,) and injected subcutaneously (sc), in a total volume of 100 μL, above the groin on the right hind limb. For MOLM-13 and KG-1 cells, a mixture (3:1, v:v) of PBS and Matrigel HC (BD Bioscience,) was used to inject 5 × 10^6 of cell per mouse subcutaneously (sc), in a total volume of 100 μL. When tumors reached 100-130 mm^3, mice were randomized into uniform groups (6-9 mice per group) and subsequently administered the compound. […] At the end of the experiment, mice were anesthetized with isofluran and blood samples for total cell counts and biochemistry were obtained by retro-orbital bleeding. […] 5×10^6 cells suspended in a mixture (3:1, v:v) of PBS and Matrigel were injected as described above. […] Tumor volume was monitored every second day and calculated using the formula: TV = (a^2×b)/2, where “a” is the short axis in millimeters, and “b” is the long axis in millimeters. Body weight was assessed every day.

EOL-1 = experiment: MTS viability assay, 72 h; conditions: Homo sapiens, EOL1, 72 h
Method: (§3) 15-25 ×10^3 of MV-4-11, MOLM-13, MOLM-14, MOLM-16, KG-1, Eol-1, SKM-1, PL-21, GDM-1, SKNO-1, RS4;11, Kasumi-3 and Kasumi-6 cells were seeded in 150 μL of culture medium onto individual wells in a 96 well plates, in triplicates. On the same day, 50 μL of medium containing tested inhibitor was added to the wells. Each compound was tested at 8 concentrations, in triplicates. As a negative control, the medium containing 0.1% DMSO was used. […] Staurosporine was used at 10 μM as a positive control. One the day of drug addition, basal signal from untreated cells was measured from in triplicate to determine time zero (T0). […] GI50 and LC50 values were extrapolated from a variable (four-parameter) dose-response curve fitted in GraphPad Prism.

MOLM-6 = experiment: MTS viability assay, 72 h; conditions: 72 h
Method: as §3

[5] = test system: S6 phosphorylation (Ser235/236) in MOLM-16 cells; experiment: S6 phosphorylation, Western blot; assay type: cell-based; conditions: MOLM16; MOLM-16, 4 hours; read-out: IC50 S6 phosphorylation (Ser235/236), Western blotting
Method: (§2) Cells were collected, washed twice with cold PBS, and lysed in RIPA buffer and kept on ice for 10 min. Tumor specimens from xenograft studies were homogenized in RIPA buffer using OMNI TH Tissue Homogenizer and kept on ice for 30 min. After incubation, cell and tumor lysates were centrifuged at 13,000×g at 4°C for 10 min and the supernatants were stored at −80°C until use. Protein concentration was measured using the Bradford method. For SDS-PAGE, 50 μg of protein in the Laemmli sample buffer was loaded onto 10% polyacrylamide gels and electrophoresed. Thereafter, proteins were transferred onto polyvinylidene fluoride (PVDF) membranes (Millipore). After blocking with 5% non-fat dry milk/TBS-T or 2% BSA/TBS-T, membranes were incubated with specific primary antibodies (listed in Supplementary Table 2) at 4 °C overnight. After extensive washing in PBS-T, membranes were incubated for 60 min with appropriate secondary peroxidase-conjugated IgG. The immunoreactive proteins were detected using an enhanced chemiluminescence (ECL) substrate (GE Healthcare) and visualized with Hyperfilm-ECL (GE Healthcare Biosciences).

[6] = test system: S6 phosphorylation (Ser235/236) in MV-4-11 cells; experiment: S6 phosphorylation, Western blot; assay type: cell-based; conditions: Homo sapiens, MV4-11; MV-4-11, 4 hours; read-out: IC50 S6 phosphorylation (Ser235/236), Western blotting
Method: as §2

[7] = test system: S6 phosphorylation (Ser235/236) in MOLM-13 cells; experiment: S6 phosphorylation, Western blot; assay type: cell-based; conditions: Homo sapiens; MOLM-13, 4 hours; read-out: IC50 S6 phosphorylation (Ser235/236), Western blotting
Method: as §2

[8] = Pharmacokinetics after oral and intravenous administration; assay type: in vivo, mice (CD-1); conditions: female, CD-1, plasma, Mouse, Dose PO/IV 50/15 mg/kg
Method: therapeutic potential in acute myeloid leukemia
sheet for further calculations.
Three male Beagle dogs were administered

[9] = Metabolic stability, liver S9 fraction; assay type: in vitro ADME; conditions: Mouse, 37 °C, read-out: Liver S9 fraction t1/2 (converted)
[10] = Metabolic stability, liver microsomes; assay type: in vitro ADME; conditions: Mouse, 37 °C, read-out: Liver microsomes t1/2 (converted)
MV-4-11 [11] = experiment: Drug interactions (combination index), MTS; assay type: cell-based; conditions: MV-4-11, broad range of concentrations
Method: and AC220 in AML cell lines was assessed using an MTS assay. Cells viability was measured after 72 h incubation with three-fold serial dilutions of compounds, starting at 10 µM concentration. Obtained data were presented as percentage of viable cells compared with control (untreated) cells viability. Error bars indicate SD.
11 cells. Combination index (CI) are shown on the Y axis and compound concentrations are shown on X and Z axes. Values […] and below 0.7- a synergy between tested compounds. Values above 1 indicate an antagonistic effect.
(1 picture or pasted object on this page, not shown here)

FLT3 (ITD) (Homo sapiens, UniProt P36888, ITD), sequence (P36888 564-993, stated change not applied): as the sequence (P36888 564-993, change not shown) above

CC(C)n1c(C2CCNCC2)nc2c([N+](=O)[O-])c(Br)c(Br)cc21 [SEL24-B489, 5,6-dibromo-4-nitro-2-(piperidin-4-yl)-1-(propan-2-yl)-1H-1,3-benzodiazole]
half-life at 1 µM [1]: 7.6 h
Kd (FLT3 (ITD) [2]): 16 nM
stronger inhibitor binding to FLT3-ITD than to FLT3-WT (FLT3 (ITD) [3]): 10 fold
IC50 (CYP2C9): > 150000 nM
GI50 (MV-4-11 [4]): 20 nM
CC50 (MV-4-11 [4]; read-out: LC50): > 10000 nM
TGI (MOLM-16 (FLT3-WT) tumor; MOLM-16, 25 mg/kg BID): ~ 100%
TGI (MOLM-16 (FLT3-WT) tumor; MOLM-16, 50 mg/kg EOD): 79%
TGI (MOLM-16 (FLT3-WT) tumor; MOLM-16, 50 mg/kg QD): ~ 100%
TGI (MOLM-13 xenografts): ~ 50%
GI50 (EOL-1): 266 nM
GI50 (MOLM-6): 449 nM
CC50 (MOLM-6; read-out: LC50): 7200 nM
IC50 [5]: 35 nM
IC50 [6]: 1 nM
IC50 [7]: 3 nM
Cmax ([8]; 50 mg/kg): 2180 ng/mL
Tmax ([8]; 50 mg/kg): 4 h
bioavailability ([8]; 50 mg/kg, read-out: F (bioavailability)): 62%
AUC(0-t) [8]: 26200 ng·h/mL
half-life [8]: 5.2 h
half-life at 1 µM [9]: 2.6 h
half-life at 1 µM [10]: 7.2 h
pharmacological interaction with AraC (MV-4-11 [11]): marked synergy
pharmacological interaction with vosaroxin (MV-4-11 [11]): marked synergy

— paper PMC5908295 (Oncotarget, 2018)
